Literature values, collected in US20200352901A1, “TETRAHYDROCANNABINOL MODULATORS” (priority 2017, published 2020).
Like-named read-outs stand apart in the source and are kept apart here.

Columns and labels:
CB1 [1] = biological target: T1, CB1 (Homo sapiens, UniProt P21554); conditions: read-out: Binding affinity to CB1
Target sequence in this assay (P21554 whole entry): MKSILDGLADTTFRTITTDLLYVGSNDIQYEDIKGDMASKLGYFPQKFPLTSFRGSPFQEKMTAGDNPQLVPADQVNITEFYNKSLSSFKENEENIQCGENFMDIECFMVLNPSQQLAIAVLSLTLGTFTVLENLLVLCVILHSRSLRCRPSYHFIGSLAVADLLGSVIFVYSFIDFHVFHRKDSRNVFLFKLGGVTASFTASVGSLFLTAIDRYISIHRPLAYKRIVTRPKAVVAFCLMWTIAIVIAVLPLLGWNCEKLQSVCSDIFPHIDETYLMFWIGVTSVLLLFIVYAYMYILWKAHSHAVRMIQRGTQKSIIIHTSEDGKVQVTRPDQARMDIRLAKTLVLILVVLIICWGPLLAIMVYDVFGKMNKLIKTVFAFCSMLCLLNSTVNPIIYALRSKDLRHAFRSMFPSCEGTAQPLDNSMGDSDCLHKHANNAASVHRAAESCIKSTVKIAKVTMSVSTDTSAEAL

human CB2 receptor [2] = biological target: T2, human CB2 receptor (Homo sapiens, UniProt P34972); conditions: cells expressing human CB2 receptor; radioligand binding; read-out: Binding affinity to CB2
UGT1A9 = biological target: T3, UGT1A9 (Homo sapiens, UniProt O60656); conditions: at 200 micromolar carvacrol; test substrate 4-methylumbelliferone
T3 sequence (O60656 26-530): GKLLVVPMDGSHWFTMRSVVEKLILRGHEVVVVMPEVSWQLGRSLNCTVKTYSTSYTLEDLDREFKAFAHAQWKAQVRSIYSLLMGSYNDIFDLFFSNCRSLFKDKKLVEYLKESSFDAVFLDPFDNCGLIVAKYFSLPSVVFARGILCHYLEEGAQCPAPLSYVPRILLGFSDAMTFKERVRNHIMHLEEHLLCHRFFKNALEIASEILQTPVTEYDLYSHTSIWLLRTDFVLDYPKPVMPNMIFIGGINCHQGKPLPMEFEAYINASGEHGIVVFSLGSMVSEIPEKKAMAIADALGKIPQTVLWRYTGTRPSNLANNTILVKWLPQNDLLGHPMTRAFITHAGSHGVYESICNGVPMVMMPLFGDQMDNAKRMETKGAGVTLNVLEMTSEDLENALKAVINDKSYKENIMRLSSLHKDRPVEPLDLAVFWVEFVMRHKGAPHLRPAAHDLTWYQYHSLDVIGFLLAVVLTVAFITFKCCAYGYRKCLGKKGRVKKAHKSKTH

UGT1A10 = biological target: T4, UGT1A10 (Homo sapiens, UniProt Q9HAW8); conditions: extrahepatic isoform UGT1A10
T4 sequence (Q9HAW8 26-530): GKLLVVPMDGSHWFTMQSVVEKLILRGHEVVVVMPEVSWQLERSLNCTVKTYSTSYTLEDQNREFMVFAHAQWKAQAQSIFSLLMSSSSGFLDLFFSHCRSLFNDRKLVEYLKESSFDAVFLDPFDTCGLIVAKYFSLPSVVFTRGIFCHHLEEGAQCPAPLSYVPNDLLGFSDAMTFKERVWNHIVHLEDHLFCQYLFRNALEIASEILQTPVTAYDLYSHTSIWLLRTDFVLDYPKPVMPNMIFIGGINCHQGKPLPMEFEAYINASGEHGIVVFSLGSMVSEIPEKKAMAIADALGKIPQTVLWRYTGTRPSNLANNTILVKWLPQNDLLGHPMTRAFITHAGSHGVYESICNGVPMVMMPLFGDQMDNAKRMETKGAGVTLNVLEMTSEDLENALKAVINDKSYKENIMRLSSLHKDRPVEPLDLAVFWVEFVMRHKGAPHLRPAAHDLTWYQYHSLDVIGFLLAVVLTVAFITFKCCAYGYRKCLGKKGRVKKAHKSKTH

CB1 [3] = biological target: T1, CB1
Target sequence in this assay (P21554 whole entry, species assumed): as the sequence (P21554 whole entry) above

CYP3A4 [4] = biological target: T5, CYP3A4 (Homo sapiens, UniProt P08684); conditions: read-out: IC(50) for CYP3A4 inhibition
CYP2C9 [5] = biological target: T6, CYP2C9 (Homo sapiens, UniProt P11712); conditions: read-out: IC(50) for CYP2C9 inhibition
CYP1A2 = biological target: T7, CYP1A2 (Homo sapiens, UniProt P05177); conditions: read-out: IC(50) for CYP1A2 inhibition
T7 sequence (P05177 1-516): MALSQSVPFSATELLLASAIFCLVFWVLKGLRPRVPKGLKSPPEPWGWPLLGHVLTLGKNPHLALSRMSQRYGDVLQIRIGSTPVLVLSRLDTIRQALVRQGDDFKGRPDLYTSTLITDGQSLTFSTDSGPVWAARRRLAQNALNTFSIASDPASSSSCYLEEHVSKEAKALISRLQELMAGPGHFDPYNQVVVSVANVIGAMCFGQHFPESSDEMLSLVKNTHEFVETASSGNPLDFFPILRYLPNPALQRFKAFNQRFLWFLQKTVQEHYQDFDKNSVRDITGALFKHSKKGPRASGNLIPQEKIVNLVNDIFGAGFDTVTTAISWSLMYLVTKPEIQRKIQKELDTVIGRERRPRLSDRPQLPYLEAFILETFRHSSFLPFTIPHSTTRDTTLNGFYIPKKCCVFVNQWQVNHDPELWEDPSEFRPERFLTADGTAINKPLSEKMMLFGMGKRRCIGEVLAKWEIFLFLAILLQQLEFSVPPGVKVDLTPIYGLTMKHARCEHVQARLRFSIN

CYP2C9 [6] = biological target: T6, CYP2C9; conditions: standard substrate of CYP2C9
CYP2A6 = CYP2A6 (Homo sapiens, UniProt P11509); conditions: standard substrate of CYP2A6
CYP2B6 = CYP2B6 (Homo sapiens, UniProt P20813); conditions: standard substrate of CYP2B6
CYP3A4 [7] = biological target: T5, CYP3A4; conditions: standard substrate of CYP3A4
CYP2D6 = CYP2D6 (Homo sapiens, UniProt P10635); conditions: standard substrate of CYP2D6
CB1 [8] = biological target: T1, CB1; remark: listed apart in the source
Target sequence in this assay (P21554 whole entry): as the sequence (P21554 whole entry) above

human CB2 receptor [9] = biological target: T2, human CB2 receptor
CYP2C8 = biological target: T8, CYP2C8 (Homo sapiens, UniProt P10632); conditions: standard substrate of CYP2C8
T8 sequence (P10632 1-490): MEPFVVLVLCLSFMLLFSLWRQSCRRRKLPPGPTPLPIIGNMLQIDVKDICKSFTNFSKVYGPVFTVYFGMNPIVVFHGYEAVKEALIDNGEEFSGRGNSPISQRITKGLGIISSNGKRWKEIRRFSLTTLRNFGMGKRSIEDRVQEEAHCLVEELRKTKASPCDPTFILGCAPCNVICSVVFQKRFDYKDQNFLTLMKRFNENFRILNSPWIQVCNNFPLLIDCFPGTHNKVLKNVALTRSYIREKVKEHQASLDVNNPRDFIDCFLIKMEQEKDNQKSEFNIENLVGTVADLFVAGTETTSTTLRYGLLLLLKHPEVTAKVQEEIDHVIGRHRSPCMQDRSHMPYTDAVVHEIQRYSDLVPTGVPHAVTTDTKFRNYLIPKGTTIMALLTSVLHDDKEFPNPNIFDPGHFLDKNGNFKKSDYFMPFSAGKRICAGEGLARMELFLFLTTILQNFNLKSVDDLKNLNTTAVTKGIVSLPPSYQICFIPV

T5 sequence (P08684 whole entry): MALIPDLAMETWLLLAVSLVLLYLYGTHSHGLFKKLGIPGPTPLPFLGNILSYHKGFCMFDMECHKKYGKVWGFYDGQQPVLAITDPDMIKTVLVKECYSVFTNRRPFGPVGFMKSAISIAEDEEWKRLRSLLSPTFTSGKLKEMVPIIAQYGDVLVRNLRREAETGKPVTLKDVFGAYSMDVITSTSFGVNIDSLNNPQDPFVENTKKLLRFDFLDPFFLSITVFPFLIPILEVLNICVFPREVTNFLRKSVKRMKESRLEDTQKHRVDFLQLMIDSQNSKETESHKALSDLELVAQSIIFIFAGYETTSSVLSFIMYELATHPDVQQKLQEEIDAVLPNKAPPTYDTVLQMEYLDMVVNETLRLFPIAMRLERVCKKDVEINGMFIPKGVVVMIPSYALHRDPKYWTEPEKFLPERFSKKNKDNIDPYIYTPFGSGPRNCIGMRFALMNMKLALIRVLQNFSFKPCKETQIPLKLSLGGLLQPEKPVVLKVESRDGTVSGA
T6 sequence (P11712 whole entry): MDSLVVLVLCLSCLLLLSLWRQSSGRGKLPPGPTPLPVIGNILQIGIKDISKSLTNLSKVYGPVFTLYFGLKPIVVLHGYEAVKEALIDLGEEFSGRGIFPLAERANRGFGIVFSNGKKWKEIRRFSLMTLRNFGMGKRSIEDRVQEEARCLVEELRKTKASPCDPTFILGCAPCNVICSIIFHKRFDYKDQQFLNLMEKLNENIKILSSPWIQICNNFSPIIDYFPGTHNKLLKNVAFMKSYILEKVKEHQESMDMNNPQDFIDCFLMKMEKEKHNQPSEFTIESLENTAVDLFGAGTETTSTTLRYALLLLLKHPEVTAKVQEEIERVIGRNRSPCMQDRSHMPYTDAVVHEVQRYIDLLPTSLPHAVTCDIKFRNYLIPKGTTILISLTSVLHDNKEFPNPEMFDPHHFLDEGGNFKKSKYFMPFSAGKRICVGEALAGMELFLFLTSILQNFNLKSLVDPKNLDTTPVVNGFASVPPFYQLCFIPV
T2 sequence (P34972 whole entry): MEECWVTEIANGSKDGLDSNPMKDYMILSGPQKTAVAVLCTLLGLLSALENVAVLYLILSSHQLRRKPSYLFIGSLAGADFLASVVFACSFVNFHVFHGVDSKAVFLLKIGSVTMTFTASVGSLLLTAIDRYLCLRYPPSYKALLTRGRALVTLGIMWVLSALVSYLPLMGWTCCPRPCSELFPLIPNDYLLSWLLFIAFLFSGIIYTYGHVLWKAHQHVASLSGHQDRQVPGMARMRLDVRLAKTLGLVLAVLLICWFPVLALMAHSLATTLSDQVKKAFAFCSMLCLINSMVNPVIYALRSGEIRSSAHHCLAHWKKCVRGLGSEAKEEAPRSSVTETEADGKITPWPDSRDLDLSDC
Sequence of CYP2B6 (P20813 whole entry): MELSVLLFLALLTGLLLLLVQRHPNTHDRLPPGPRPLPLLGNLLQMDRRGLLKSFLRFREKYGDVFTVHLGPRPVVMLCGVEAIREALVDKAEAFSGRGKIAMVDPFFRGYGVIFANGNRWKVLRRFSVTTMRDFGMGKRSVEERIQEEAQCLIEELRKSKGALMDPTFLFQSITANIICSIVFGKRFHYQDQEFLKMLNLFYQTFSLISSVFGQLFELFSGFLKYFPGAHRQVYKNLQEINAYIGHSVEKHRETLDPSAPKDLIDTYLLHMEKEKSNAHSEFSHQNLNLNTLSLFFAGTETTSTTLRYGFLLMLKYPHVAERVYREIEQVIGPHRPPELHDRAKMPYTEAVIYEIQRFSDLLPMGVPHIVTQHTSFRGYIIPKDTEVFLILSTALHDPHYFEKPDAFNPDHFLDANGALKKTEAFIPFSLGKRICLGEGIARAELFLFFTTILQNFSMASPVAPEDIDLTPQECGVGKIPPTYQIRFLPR
Sequence of CYP2D6 (P10635 whole entry): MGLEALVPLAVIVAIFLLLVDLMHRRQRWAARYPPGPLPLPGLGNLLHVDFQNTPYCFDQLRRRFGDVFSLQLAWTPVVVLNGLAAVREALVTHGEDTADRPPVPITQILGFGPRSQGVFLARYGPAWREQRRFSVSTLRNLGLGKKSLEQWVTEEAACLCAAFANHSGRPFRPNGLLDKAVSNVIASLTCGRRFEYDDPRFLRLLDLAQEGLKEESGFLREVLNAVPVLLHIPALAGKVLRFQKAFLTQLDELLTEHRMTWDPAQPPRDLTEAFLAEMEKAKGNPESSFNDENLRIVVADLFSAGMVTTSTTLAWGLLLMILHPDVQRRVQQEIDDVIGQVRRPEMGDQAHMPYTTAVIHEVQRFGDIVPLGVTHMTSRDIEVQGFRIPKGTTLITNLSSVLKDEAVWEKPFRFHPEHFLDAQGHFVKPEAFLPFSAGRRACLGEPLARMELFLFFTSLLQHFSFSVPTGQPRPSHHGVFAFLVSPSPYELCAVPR
Sequence of CYP2A6 (P11509 whole entry): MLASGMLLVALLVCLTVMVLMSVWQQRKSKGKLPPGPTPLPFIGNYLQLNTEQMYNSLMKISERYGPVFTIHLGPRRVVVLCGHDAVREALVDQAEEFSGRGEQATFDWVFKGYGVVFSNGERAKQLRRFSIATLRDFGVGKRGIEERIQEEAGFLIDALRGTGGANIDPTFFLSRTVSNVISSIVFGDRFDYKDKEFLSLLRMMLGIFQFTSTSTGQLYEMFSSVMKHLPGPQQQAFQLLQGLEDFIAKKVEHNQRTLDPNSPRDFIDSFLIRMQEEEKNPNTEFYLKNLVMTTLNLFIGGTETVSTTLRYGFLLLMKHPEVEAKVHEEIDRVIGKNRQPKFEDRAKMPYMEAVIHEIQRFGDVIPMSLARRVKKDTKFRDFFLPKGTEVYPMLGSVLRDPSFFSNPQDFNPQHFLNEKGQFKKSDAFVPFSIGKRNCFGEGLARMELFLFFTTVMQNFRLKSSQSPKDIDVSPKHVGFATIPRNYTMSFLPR

C=C1CCC2C(c3c(O)cc(CCCCC)cc3OC2(C)C)C1O (single isomer, unassigned) [Compound 4, 10-beta-hydroxy-delta-9,11-hexahydro-cannabinol]
Ki (CB1 [1]): 0.83 µM | Ki (human CB2 receptor [2]): 3.27 µM

Cc1ccc(C(C)C)cc1O [carvacrol]
4-methylumbelliferone glucuronidation activity remaining (UGT1A9): 20 % maximal activity

CCCCCc1cc(O)c2c(c1)OC(C)(C)c1ccc(C)cc1-2 [CBN, cannabinol]
Km (UGT1A10): 55 µM

CCCCCc1cc(O)c2c(c1)OC(C)(C)[C@@H]1CC=C(CO)C[C@@H]21 [11-hydroxy-delta-8-THC]
Functional character at CB1 (CB1 [3]): agonists

CC(C)=C1C[C@@H]2O[C@@]2(C)CC/C=C(\C)CC1=O [Compound 7, (4S,5S)-(−)-germacrone-4,5-epoxide]
IC50 (CYP3A4 [4]): 1 ± 0.2 µM | IC50 (CYP2C9 [5]): 7.6 ± 2.5 µM | IC50 (CYP1A2): 33.2 ± 3.6 µM

O=C(O)Cc1ccccc1Nc1c(Cl)cccc1Cl [diclofenac]
Km (CYP2C9 [6]): 3.5 µM

C=C1CCC2C(c3c(O)cc(CCCCC)cc3OC2(C)C)C1O (single isomer, unassigned) [Compound 5, 10-alpha-hydroxy-delta-9,11-hexahydro-cannabinol]
Ki (CB1 [1]): 0.117 µM | Ki (human CB2 receptor [2]): 0.129 µM

COc1cc(/C=C/C(O)=C/C(=O)/C=C/c2ccc(O)cc2)ccc1O [Compound 12, demethoxycurcumin]
IC50 (CYP3A4 [4]): 7 ± 1.7 µM | IC50 (CYP2C9 [5]): 1.4 ± 0.2 µM | IC50 (CYP1A2): 34 ± 14.2 µM

CCCCCc1cc(O)c2c(c1)OC(C)(C)C1CC(O)C(C)=CC21 (single isomer, unassigned) [Compound 1, 8-alpha-hydroxy-delta-9-THC]
Ki (CB1 [1]): 1.91 µM | Ki (human CB2 receptor [2]): 3.22 µM

O=c1ccc2ccccc2o1 [coumarin]
Km (CYP2A6): 1 µM

CCCCCc1cc(O)c2c(c1)OC(C)(C)[C@@H]1CCC(CO)=C[C@@H]21 [Compound 11-OH-THC, 11-hydroxy-delta-9-tetrahydrocannabinol]
Functional character at CB1 (CB1 [3]): agonists | Km (UGT1A10): 16 µM

CC(NC(C)(C)C)C(=O)c1cccc(Cl)c1 (stereo not shown) [bupropion]
Km (CYP2B6): 137 µM

COc1cc(/C=C/C(=O)CC(=O)/C=C/c2ccc(O)c(OC)c2)ccc1O [Compound 11, curcumin]
IC50 (CYP1A2): > 100 µM

Cc1ncc2n1-c1ccc(Cl)cc1C(c1ccccc1F)=NC2 [midazolam]
Km (CYP3A4 [7]): 1.8 µM

CCCCCc1cc(O)c2c(c1)OC(C)(C)C1CC(O)C(C)=CC21 (single isomer, unassigned) [Compound 2, 8-beta-hydroxy-delta-9-THC]
Ki (CB1 [1]): 0.065 µM | Ki (human CB2 receptor [2]): 0.088 µM

COc1ccc2c(c1)[C@]13CCCC[C@@H]1[C@H](C2)N(C)CC3 [dextromorphone]
Km (CYP2D6): 5 µM

CCCCCc1cc(O)c2c(c1)OC(C)(C)C1CC=C(C)C(O)C21 (stereo not drawn) [Compound 3, 10-alpha-hydroxy-delta-8-THC]
Ki (CB1 [1]): 0.031 µM | Ki (human CB2 receptor [2]): 0.03 µM | Functional character at CB1 (CB1 [8]): partial agonist | Functional character at CB2 (human CB2 receptor [9]): partial agonist

C[C@]12CC[C@H]3[C@@H](CCC4=CC(=O)CC[C@@]43C)[C@@H]1CC[C@@H]2O [testosterone]
Km (CYP3A4 [7]): 64 µM

CCN(CC)Cc1cc(Nc2ccnc3cc(Cl)ccc23)ccc1O [amodiaquine]
Km (CYP2C8): 0.9 µM
